Non-standard residues stand in square brackets, D forms with d. Residues, ends and D or L forms follow the SMILES beside them. *: point of attachment. CH3O(CH2CH2O)11CH2CH2CO = COCCOCCOCCOCCOCCOCCOCCOCCOCCOCCOCCOCCC(=O)*; X1 = O=[N+]([O-])c1ccc(NCCN*)cc1; Cit = NC(=O)NCCC[C@H](N)C(=O)O
How the values were obtained:
Format in all cases: biochemical
[1] = tested on: liver lysosomal (enzyme) extract; assay: Digestion assay with rat liver lysosomal extract; settings: for Sample Velocity / Normalized Velocity: AENA substrates; for Sample Velocity: linear rate of reporter generation at <50% completion, pH 5, 37° C.; for Normalized Velocity: normalized with compound 60 velocity (average 123.8 nmol/h); for Relative Velocity, Lysosomal Extract: normalized to compound 23
Procedure: Various amino acid combinations, tetrapeptides, were used to link various first moieties (R^5) and an AENA report group second compound (R^6) to form assay substrates (substrates). Cleavage rate of the peptides were evaluated by analysis of digestion of the substrates in the presence of rat lysosomal extract.
Reporting groups were coupled to the C-terminus of the peptide substrates as described above for UV-vis monitoring to explore the influence of amino acid sequence on kinetics of peptide degradation by HPLC. N-(2-aminoethyl)-4-nitroaniline (AENA) or N-(aminoethyl)-5-napthylamine-1-sulfonic acid (EDANS) were used as reporting groups for HPLC monitoring as neither absorptivity nor lambda maximum were affected for either after cleavage from the peptide. The N-terminus of each peptide substrate was modified with either methoxy polyethylene glycol (PEG12) or N-acetyl galactosamine (NAG(OR)3) (FIG. 1).
Proteolytic digestion experiments were carried out at a fixed substrate concentration (0.51 μmol) using liver lysosomal (enzyme) extract (0.45 μg/μL) in a 25 mM MES solution buffered to pH 5 containing 1% CHAPS and 1.8 mM DTT incubated at 37° C. Enzyme extract was activated in the presence of DTT for 15 minutes at 37° C. prior to addition of AENA labeled peptide substrates. At various time points, up to 26 h, 20 μL aliquots were removed and acidified to a pH of 3 with TFA. Analysis of fractions was performed using HPLC with a Aquasil C18 reverse-phase column (250×4.6, Thermofisher, Waltham, Mass.), monitored at 390 nm and 335 nm for AENA and EDANS respectively. Elution was performed with a gradient of acetonitrile and water buffered with 0.1% formic acid. Generation of unmodified reporter molecule was measured. To minimize freeze thaw cycles the lysosomal extract was dispensed into multiple aliquots prior to storage at −80° C. A new aliquot was employed for each study and used immediately upon thawing. Lysosomal extract was sourced from female Hans Wistar rats by differential density gradient centrifugation (Graham et al. 2000). Protein concentration of lysosomal extract was determined by standard BCA protein assay protocols. […]
Rate (also called velocity of degradation or velocity) was extrapolated during early linear turnover (Table 2). As used herein, rate is defined as the linear rate of reporting group generation at less than 50% completion (digestion rate was assumed to be linear at less than 50% completion). For substrates in which cleavage deviated from consecutive first order kinetics, the percent of reporting group liberated at the endpoint of digestion was used as a metric for comparison.

rat liver S9 extract = assay: Digestion with rat liver S9 extract; settings: normalized to compound 23
Procedure: (§1) Proteolytic digestion experiments were carried out at a fixed substrate concentration (0.51 μmol) using liver lysosomal (enzyme) extract (0.45 μg/μL) in a 25 mM MES solution buffered to pH 5 containing 1% CHAPS and 1.8 mM DTT incubated at 37° C. Enzyme extract was activated in the presence of DTT for 15 minutes at 37° C. prior to addition of AENA labeled peptide substrates. At various time points, up to 26 h, 20 μL aliquots were removed and acidified to a pH of 3 with TFA. Analysis of fractions was performed using HPLC with a Aquasil C18 reverse-phase column (250×4.6, Thermofisher, Waltham, Mass.), monitored at 390 nm and 335 nm for AENA and EDANS respectively. Elution was performed with a gradient of acetonitrile and water buffered with 0.1% formic acid. Generation of unmodified reporter molecule was measured. To minimize freeze thaw cycles the lysosomal extract was dispensed into multiple aliquots prior to storage at −80° C. A new aliquot was employed for each study and used immediately upon thawing. Lysosomal extract was sourced from female Hans Wistar rats by differential density gradient centrifugation (Graham et al. 2000). Protein concentration of lysosomal extract was determined by standard BCA protein assay protocols. Compound 60 was used for normalization of velocity between experiments (Tables 2-4). […] Normalized sample velocity was calculated as: [(average compound 60 velocity[…]experimental compound 60 velocity)]×sample experimental velocity.
(§2) The observed rates of cleavage were not dependent on the source of proteolytic enzymes. The order of increasing velocity (23>30>37>42) was maintained when digested using commercially available rat and human liver S9 extract (Xenotech LLC, Lenexa, Kans.) (Table 5). Thus rates of cleavage are expected to be similar across different species and cell types.

human liver S9 extract = assay: Digestion with human liver S9 extract; settings: normalized to compound 23
Procedure: as §1, §2

Sample Velocity [1] [nmol/h]	Normalized Velocity [1] [nmol/h]	% Released at Endpoint (21 hr) [1] [%]	Relative Velocity, Lysosomal Extract [1]	Relative Velocity, RAT S9 Extract (rat liver S9 extract)	Relative Velocity, HUMAN S9 Extract (human liver S9 extract)	Compound
11.8	13.5	44.2	7.0	3.3	7.1	NAG(OAc)3-ACitAP- AENA [Compound 37]
–	–	–	–	0.6	1.7	COCCOCCOCCOCCOCCOCCOCCOCCOCCOCCOCCOCCC(=O)N[C@@H](CCCNC(N)=O)C(=O)N[C@@H](C)C(=O)N1CCC[C@H]1C(=O)NCCNc1ccc([N+](=O)[O-])cc1 [Compound 42, PEG12-CitAP-AENA]
–	–	–	–	100.0	100.0	COCCOCCOCCOCCOCCOCCOCCOCCOCCOCCOCCOCCC(=O)N[C@@H](Cc1ccccc1)C(=O)N[C@@H](CCCNC(N)=O)C(=O)N[C@@H](Cc1ccccc1)C(=O)N1CCC[C@H]1C(=O)NCCNc1ccc([N+](=O)[O-])cc1 [Compound 23, PEG12-FCitFP-AENA] ({CH3O(CH2CH2O)11CH2CH2CO}-F[Cit]FP-X1)
54.3	62.0	96.5	32.1	28.3	45.7	NAG(OAc)3-FCitAP- AENA [Compound 30]

From patent US10005815B2, “Biologically cleavable tetrapeptide linking agents” (Arrowhead Madison Inc., priority 2015, dated 2018)
